Data on one substance can be found in PMC6385875 (Inorganica chimica acta, 2018).

The nature of this series: In vitro integrity of tracers in buffer at physiological pH by HPLC. It counts as physicochemical. The conditions noted are these: incubated at physiological pH for up to 6 h.

Take ^99mTc(CO)3(PMIDA) [^99mTc-1]: the “in vitro stability (decomposition by HPLC)” value is given as “No measurable decomposition”.
